Laboratory results: patent US12091426B2, “Bifunctional degraders of hematopoietic progenitor kinase and therapeutic uses thereof” (Nurix Therapeutics, Inc., priority 2021, dated 2024)

Target: T1, HPK1 (Homo sapiens, UniProt Q92918)
T1 construct: A HiBiT tag was introduced by CRISPR on the N terminus of HPK1 in Jurkat cells; host or cells: Jurkat cells (ATCC TIB-152), monoclonal line with CRISPR knock-in of HiBiT at the endogenous HPK1 locus
Assay: HPK1 Cellular HiBit Degradation Assay
Type: cell-based
Details: HiBiT HPK1 Jurkat cells, 24 hrs; for DC50: concentration at which 50% of HPK1 was remaining, read-out: DC50 Category; for Dmax: Jurkat, read-out: Dmax Category
Summary of the method: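 HPK1 levels are read by HiBiT luminescence after 24 h exposure of HiBiT-knock-in Jurkat cells to compound at 10 uM–0.1 nM final (11 points). Relative to DMSO (100%), DC50 is the concentration leaving 50% HPK1 from a variable-slope fit, and Dmax is 100 minus minimum remaining. Viability checked in-plate.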

[1] = maximum degradation vs DMSO vehicle control

T1 sequence (Q92918 whole entry): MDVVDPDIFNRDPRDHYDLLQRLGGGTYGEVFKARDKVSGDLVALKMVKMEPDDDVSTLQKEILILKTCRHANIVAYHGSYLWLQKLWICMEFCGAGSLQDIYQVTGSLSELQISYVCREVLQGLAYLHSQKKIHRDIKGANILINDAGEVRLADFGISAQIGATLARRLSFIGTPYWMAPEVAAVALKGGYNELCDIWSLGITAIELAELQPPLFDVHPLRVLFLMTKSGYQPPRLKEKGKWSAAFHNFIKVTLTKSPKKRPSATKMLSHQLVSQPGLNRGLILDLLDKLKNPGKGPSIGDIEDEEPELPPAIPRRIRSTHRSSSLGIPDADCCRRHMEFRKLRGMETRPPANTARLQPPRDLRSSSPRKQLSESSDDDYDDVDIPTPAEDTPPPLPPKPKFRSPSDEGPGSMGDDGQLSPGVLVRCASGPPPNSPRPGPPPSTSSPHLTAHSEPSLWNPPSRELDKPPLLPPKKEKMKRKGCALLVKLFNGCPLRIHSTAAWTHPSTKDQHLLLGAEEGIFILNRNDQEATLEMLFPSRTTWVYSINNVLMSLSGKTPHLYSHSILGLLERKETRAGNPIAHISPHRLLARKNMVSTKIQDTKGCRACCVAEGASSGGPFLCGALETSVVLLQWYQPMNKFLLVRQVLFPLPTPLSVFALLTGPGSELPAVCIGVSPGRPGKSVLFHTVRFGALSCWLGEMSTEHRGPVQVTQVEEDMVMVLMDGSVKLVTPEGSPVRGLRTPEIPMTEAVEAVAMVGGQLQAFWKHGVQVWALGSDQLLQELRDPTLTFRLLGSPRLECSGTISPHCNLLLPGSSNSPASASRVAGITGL

## CC(C)n1cnc2cc(-c3ccc4c(c3)N([C@H]3C[C@@H](N5CCCCC5)C3)C(=O)C43CCN(C(=O)CN4CCC(OCC#Cc5cccc6c5n(C)c(=O)n6C5CCC(=O)NC5=O)CC4)CC3)nc(NC3CC3)c21 (mixture of isomers) [Example 229, (3RS)-3-[4-(3-{[1-(2-{6-[4-(cyclopropylamino)-3-(propan-2-yl)-3H-imidazo[4,5-c]pyridin-6-yl]-2-oxo-1-[(1S,3S)-3-(piperidin-1-yl)cyclobutyl]-1,2-dihydrospiro[indole-3,4′-piperidin]-1′-yl}-2-oxoethyl)piperidin-4-yl]oxy}prop-1-yn-1-yl)-3-methyl-2-oxo-2,3-dihydro-1H-1,3-benzodiazol-1-yl]piperidine-2,6-dione]
  DC50: < 100 nM
[1]
  Dmax: 70 to 85%

## CC(C)n1cnc2cc(-c3ccc4c(c3)N(C3CC(N5CCCCC5)C3)C(=O)C43CCN(C(=O)C4CCC(C(=O)N5CCC(COc6ccc(C7CCC(=O)NC7=O)cc6)CC5)CC4)CC3)nc(NC3CC3)c21 (racemic) [Example 230, (3RS)-3-[4-({1-[(1R,4R)-4-({6-[4-(cyclopropylamino)-3-(propan-2-yl)-3H-imidazo[4,5-c]pyridin-6-yl]-2-oxo-1-[(1S,3S)-3-(piperidin-1-yl)cyclobutyl]-1,2-dihydrospiro[indole-3,4′-piperidin]-1′-yl}carbonyl)cyclohexanecarbonyl]piperidin-4-yl}methoxy)phenyl]piperidine-2,6-dione]
  DC50: < 100 nM
[1]
  Dmax Category: C (C: >50%-<70%)

## CC(C)n1cnc2cc(-c3ccc4c(c3)N([C@H]3C[C@@H](N5CCCCC5)C3)C(=O)C43CCN(C(=O)[C@H]4CCCN(C(=O)CC5CCN(c6ccc(C7CCC(=O)NC7=O)cn6)CC5)C4)CC3)nc(NC3CC3)c21 (mixture of isomers) [Example 231, (3RS)-3-[6-(4-{2-[(3S)-3-({6-[4-(cyclopropylamino)-3-(propan-2-yl)-3H-imidazo[4,5-c]pyridin-6-yl]-2-oxo-1-[(1S,3S)-3-(piperidin-1-yl)cyclobutyl]-1,2-dihydrospiro[indole-3,4′-piperidin]-1′-yl}carbonyl)piperidin-1-yl]-2-oxoethyl}piperidin-1-yl)pyridin-3-yl]piperidine-2,6-dione]
  DC50: 100 to 500 nM
[1]
  Dmax: 50 to 70%

## CC(C)n1cnc2cc(-c3ccc4c(c3)N([C@H]3C[C@@H](N5CCCCC5)C3)C(=O)C43CCN(C(=O)[C@@H]4CCN(C(=O)C5CCN(c6ccc(C7CCC(=O)NC7=O)cc6)CC5)C4)CC3)nc(NC3CC3)c21 (mixture of isomers) [Example 232, (3RS)-3-(4-{4-[(3R)-3-({6-[4-(cyclopropylamino)-3-(propan-2-yl)-3H-imidazo[4,5-c]pyridin-6-yl]-2-oxo-1-[(1S,3S)-3-(piperidin-1-yl)cyclobutyl]-1,2-dihydrospiro[indole-3,4′-piperidin]-1′-yl}carbonyl)pyrrolidine-1-carbonyl]piperidin-1-yl}phenyl)piperidine-2,6-dione]
  DC50: < 100 nM
[1]
  Dmax: 70 to 85%

## CC(C)n1cnc2cc(-c3ccc4c(c3)N([C@H]3C[C@@H](N5CCCCC5)C3)C(=O)C43CCN(C(=O)[C@@H]4CCCN(C(=O)[C@H]5CC[C@H](Oc6ccc(C7CCC(=O)NC7=O)cc6)CC5)C4)CC3)nc(NC3CC3)c21 (mixture of isomers) [Example 234, (3RS)-3-(4-{[(1R,4R)-4-[(3R)-3-({6-[4-(cyclopropylamino)-3-(propan-2-yl)-3H-imidazo[4,5-c]pyridin-6-yl]-2-oxo-1-[(1S,3S)-3-(piperidin-1-yl)cyclobutyl]-1,2-dihydrospiro[indole-3,4′-piperidin]-1′-yl}carbonyl)piperidine-1-carbonyl]cyclohexyl]oxy}phenyl)piperidine-2,6-dione]
  DC50: < 100 nM
[1]
  Dmax: 70 to 85%
